From patent publication US10214507B2, “Carbazole-containing amides, carbamates, and ureas as cryptochrome modulators” (Reset Therapeutics, Inc., priority 2014, dated 2019)

Each molecule was assayed on stable U20S reporter cells harboring Per2-dLuc (assay: Per2 assay for evaluating the potency of test compounds (circadian luciferase reporter)). Conditions: amplitude of Per2-dLuc luminescence vs log concentration.
Format: cell-based
Protocol: Compounds were screened by using a high-throughput circadian assay system as previously described in Zhang, E. E. et al. Cell, 2009, 139, 199-210. In brief, stable U20S reporter cells harboring Per2-dLuc were plated at a density of 30,000 cells/well in Corning 96-well, solid white, flat bottom, TC-treated microplates (Corning®), and incubated for 48 hours at 37° C. in the presence of 5% CO2 in a medium of Dulbecco's Modified Eagle Medium (DMEM) supplemented with 10% fetal bovine serum (FBS) and penicillin (100 units/mL)-streptomycin (100 μg/mL). […] DMSO stocks are then serially diluted in DMSO, typically diluting 3-fold for each dilution step. Following the 48 h period, cell culture medium is removed from plated cells and cells are synchronized with 200 μL/well of complete cell culture medium (described above), supplemented with 5 μM forskolin (Tocris®) and 1 mM beetle luciferin (Promega®). Immediately following synchronization, 1 μL of compound dilution is added to each well. Plates are sealed, shaken briefly, and gene expression was monitored by measuring luminescence (Tecan® Infinite M200 or Tecan® Infinite M200 Pro) continuously for a minimum of 3 days at 35° C. Raw luminescence data (counts) are first analyzed using Multicycle™ software (Actimetrics, Inc.) to determine the amplitude (amp), period, and phase (phz) for each compound concentration. The period length for control wells (i.e. no compound, DMSO only) should be 26-30 h. Amp data are then plotted against the logarithm compound concentration (M) and analyzed by nonlinear regression analysis to determine the EC50.

Point of comparison: `O=C1COCCN1CC(O)Cn1c2ccc(F)cc2c2cc(F)ccc21` (centres unmarked) [Compound 55, 4-(3-(3,6-difluoro-9H-carbazol-9-yl)-2-hydroxypropyl)morpholin-3-one], EC50 738 nM. Against it:
- CC1CCCC(=O)N1CC(C)(O)Cn1c2ccc(F)cc2c2cc(F)ccc21 (centres unmarked) [Compound 40, 1-(3-(3,6-difluoro-9H-carbazol-9-yl)-2-hydroxy-2-methylpropyl)-6-methylpiperidin-2-one] — 1.5-fold lower, 484 nM
- CC(C)C1CC(=O)N(CC(O)Cn2c3ccc(F)cc3c3cc(F)ccc32)C1 (centres unmarked) [Compound 41, 1-(3-(3,6-difluoro-9H-carbazol-9-yl)-2-hydroxypropyl)-4-isopropylpyrrolidin-2-one] — 2-fold lower, 373 nM
- O=C1CC(C2CC2)CN1CC(O)Cn1c2ccc(F)cc2c2cc(F)ccc21 (centres unmarked) [Compound 42, 4-cyclopropyl-1-(3-(3,6-difluoro-9H-carbazol-9-yl)-2-hydroxypropyl)pyrrolidin-2-one] — 1.8-fold lower, 420 nM
- CC1CC(=O)N(CC(O)Cn2c3ccc(F)cc3c3cc(F)ccc32)C1 (centres unmarked) [Compound 43, 1-(3-(3,6-difluoro-9H-carbazol-9-yl)-2-hydroxypropyl)-4-methylpyrrolidin-2-one] — within 1.5-fold, 1030 nM
- CC1CC(=O)N(CC(C)(O)Cn2c3ccc(F)cc3c3cc(F)ccc32)C1 (centres unmarked) [Compound 44, 1-(3-(3,6-difluoro-9H-carbazol-9-yl)-2-hydroxy-2-methylpropyl)-4-methylpyrrolidin-2-one] — within 1.5-fold, 1060 nM
- CCC1CC(=O)N(CC(O)Cn2c3ccc(F)cc3c3cc(F)ccc32)C1 (centres unmarked) [Compound 45, 1-(3-(3,6-difluoro-9H-carbazol-9-yl)-2-hydroxypropyl)-4-ethylpyrrolidin-2-one] — 14-fold lower, 52 nM
- CCC1CC(=O)N(CC(C)(O)Cn2c3ccc(F)cc3c3cc(F)ccc32)C1 (centres unmarked) [Compound 46, 1-(3-(3,6-difluoro-9H-carbazol-9-yl)-2-hydroxy-2-methylpropyl)-4-ethylpyrrolidin-2-one] — within 1.5-fold, 618 nM
- CC1CC(=O)N(CC(O)Cn2c3ccc(F)cc3c3cc(F)ccc32)C1C (centres unmarked) [Compound 47, 1-(3-(3,6-difluoro-9H-carbazol-9-yl)-2-hydroxypropyl)-4,5-dimethylpyrrolidin-2-one] — 2.5-fold lower, 299 nM
- CC1CCN(CC(O)Cn2c3ccc(F)cc3c3cc(F)ccc32)C(=O)C1 (centres unmarked) [Compound 49, 1-(3-(3,6-difluoro-9H-carbazol-9-yl)-2-hydroxypropyl)-4-methylpiperidin-2-one] — 5.4-fold lower, 137 nM
- O=C1C(C2CCC2)CCN1CC(O)Cn1c2ccc(F)cc2c2cc(F)ccc21 (centres unmarked) [Compound 50, 3-cyclobutyl-1-(3-(3,6-difluoro-9H-carbazol-9-yl)-2-hydroxypropyl)pyrrolidin-2-one] — 3.6-fold lower, 204 nM
- O=C1C(C2CCC2)CCCN1CC(O)Cn1c2ccc(F)cc2c2cc(F)ccc21 (centres unmarked) [Compound 51, 3-cyclobutyl-1-(3-(3,6-difluoro-9H-carbazol-9-yl)-2-hydroxypropyl)piperidin-2-one] — 2.8-fold lower, 265 nM
- CC(O)(CN1CCCC(C2CCC2)C1=O)Cn1c2ccc(F)cc2c2cc(F)ccc21 (centres unmarked) [Compound 52, 3-cyclobutyl-1-(3-(3,6-difluoro-9H-carbazol-9-yl)-2-hydroxy-2-methylpropyl)piperidin-2-one] — 1.8-fold higher, 1360 nM
- O=C1C(c2ccccc2)CCN1CC(O)Cn1c2ccc(F)cc2c2cc(F)ccc21 (centres unmarked) [Compound 53, 1-(3-(3,6-difluoro-9H-carbazol-9-yl)-2-hydroxypropyl)-3-phenylpyrrolidin-2-one] — 1.8-fold higher, 1340 nM
- CC(O)(CN1CCC(c2ccccc2)C1=O)Cn1c2ccc(F)cc2c2cc(F)ccc21 (centres unmarked) [Compound 54, 1-(3-(3,6-difluoro-9H-carbazol-9-yl)-2-hydroxy-2-methylpropyl)-3-phenylpyrrolidin-2-one] — within 1.5-fold, 808 nM
- CC(O)(CN1CCOCC1=O)Cn1c2ccc(F)cc2c2cc(F)ccc21 (centres unmarked) [Compound 56, 4-(3-(3,6-difluoro-9H-carbazol-9-yl)-2-hydroxy-2-methylpropyl)morpholin-3-one] — within 1.5-fold, 1060 nM
- O=C1N(CC(O)Cn2c3ccc(F)cc3c3cc(F)ccc32)CCC1(F)F (centres unmarked) [Compound 58, 1-(3-(3,6-difluoro-9H-carbazol-9-yl)-2-hydroxypropyl)-3,3-difluoropyrrolidin-2-one] — within 1.5-fold, 716 nM
- CC(O)(CN1CCC(F)(F)C1=O)Cn1c2ccc(F)cc2c2cc(F)ccc21 (centres unmarked) [Compound 59, 1-(3-(3,6-difluoro-9H-carbazol-9-yl)-2-hydroxy-2-methylpropyl)-3,3-difluoropyrrolidin-2-one] — within 1.5-fold, 986 nM
- COC1CCCN(CC(O)Cn2c3ccccc3c3ccccc32)C1=O (centres unmarked) [Compound 60, 1-(3-(9H-carbazol-9-yl)-2-hydroxypropyl)-3-methoxypiperidin-2-one] — 2.2-fold lower, 331 nM
- CC1CCN(CC(O)Cn2c3ccccc3c3ccccc32)C(=O)C1 (centres unmarked) [Compound 61, 2-(3-(9H-carbazol-9-yl)-2-hydroxypropyl)-4-methylpiperidin-2-one] — within 1.5-fold, 710 nM
- CC1CCC(=O)N(CC(O)Cn2c3ccccc3c3ccccc32)C1 (centres unmarked) [Compound 62, 1-(3-(9H-carbazol-9-yl)-2-hydroxypropyl)-5-methylpiperidin-2-one] — 2-fold lower, 370 nM
- CC1CCCC(=O)N1CC(O)Cn1c2ccccc2c2ccccc21 (centres unmarked) [Compound 63, 1-(3-(9H-carbazol-9-yl)-2-hydroxypropyl)-6-methylpiperidin-2-one] — within 1.5-fold, 541 nM
- CC1CCCN(CC(O)Cn2c3ccccc3c3ccccc32)C1=O (centres unmarked) [Compound 64, 1-(3-(9H-carbazol-9-yl)-2-hydroxypropyl)-3-methylpiperidin-2-one] — 1.6-fold lower, 462 nM
- O=C1CC(C2CC2)CN1CC(O)Cn1c2ccccc2c2ccccc21 (centres unmarked) [Compound 65, 1-(3-(9H-carbazol-9-yl)-2-hydroxypropyl)-4-cyclopropylpyrrolidin-2-one] — within 1.5-fold, 1030 nM
- CC(O)(CN1CCCCC1=O)Cn1c2ccccc2c2ccccc21 (centres unmarked) [Compound 66, 1-(3-(9H-carbazol-9-yl)-2-hydroxy-2-methylpropyl)piperidin-2-one] — within 1.5-fold, 523 nM
- CC(O)(CN1CCCC1=O)Cn1c2ccccc2c2ccccc21 (centres unmarked) [Compound 67, 1-(3-(9H-carbazol-9-yl)-2-hydroxy-2-methylpropyl)pyrrolidin-2-one] — 3.3-fold lower, 225 nM
- O=C1CCCN1CC(O)Cn1c2ccccc2c2ccccc21 (centres unmarked) [Compound 68, 1-(3-(9H-carbazol-9-yl)-2-hydroxypropyl)pyrrolidin-2-one] — 2.6-fold lower, 288 nM
- O=C1N(CC(O)Cn2c3ccccc3c3ccccc32)CCCC1(F)F (centres unmarked) [Compound 69, 1-(3-(9H-carbazol-9-yl)-2-hydroxypropyl)-3,3-difluoropiperidin-2-one] — 5.4-fold lower, 137 nM
- O=C1C(F)CCCN1CC(O)Cn1c2ccccc2c2ccccc21 (centres unmarked) [Compound 70, 1-(3-(9H-carbazol-9-yl)-2-hydroxypropyl)-3-fluoropiperidin-2-one] — 12-fold lower, 61 nM
- O=C1NCCCN1CC(O)Cn1c2ccc(F)cc2c2cc(F)ccc21 (centres unmarked) [Compound 71, 1-(3-(3,6-difluoro-9H-carbazol-9-yl)-2-hydroxypropyl)tetrahydropyrimidin-2(1H)-one] — 3.9-fold lower, 188 nM
- CCN1CCN(CC(O)Cn2c3ccc(F)cc3c3cc(F)ccc32)C1=O (centres unmarked) [Compound 73, 1-(3-(3,6-difluoro-9H-carbazol-9-yl)-2-hydroxypropyl)-3-ethylimidazolidin-2-one] — 1.5-fold higher, 1110 nM
- O=C1N(CC(O)Cn2c3ccc(F)cc3c3cc(F)ccc32)CCCN1C1CCCCC1 (centres unmarked) [Compound 74, 1-cyclohexyl-3-(3-(3,6-difluoro-9H-carbazol-9-yl)-2-hydroxypropyl)tetrahydropyrimidin-2(1H)-one] — 2.6-fold lower, 284 nM
- O=C1N(CC(O)Cn2c3ccc(F)cc3c3cc(F)ccc32)CCCN1c1ccccc1 (centres unmarked) [Compound 75, 1-(3-(3,6-difluoro-9H-carbazol-9-yl)-2-hydroxypropyl)-3-phenyltetrahydropyrimidin-2(1H)-one] — 4.3-fold lower, 171 nM
- O=C1N(CC(O)Cn2c3ccc(F)cc3c3cc(F)ccc32)CCCN1C1CCCC1 (centres unmarked) [Compound 76, 1-cyclopentyl-3-(3-(3,6-difluoro-9H-carbazol-9-yl)-2-hydroxypropyl)tetrahydropyrimidin-2(1H)-one] — within 1.5-fold, 609 nM
- CC(C)N1CCCN(CC(O)Cn2c3ccc(F)cc3c3cc(F)ccc32)C1=O (centres unmarked) [Compound 77, 1-(3-(3,6-difluoro-9H-carbazol-9-yl)-2-hydroxypropyl)-3-isopropyltetrahydropyrimidin-2(1H)-one] — within 1.5-fold, 620 nM
- O=C1N(CC(O)Cn2c3ccc(F)cc3c3cc(F)ccc32)CCCN1C1CCC1 (centres unmarked) [Compound 78, 1-cyclobutyl-3-(3-(3,6-difluoro-9H-carbazol-9-yl)-2-hydroxypropyl)tetrahydropyrimidin-2(1H)-one] — 1.7-fold lower, 440 nM
- CC(O)(CN1CCCN(c2ccccc2)C1=O)Cn1c2ccc(F)cc2c2cc(F)ccc21 (centres unmarked) [Compound 79, 1-(3-(3,6-difluoro-9H-carbazol-9-yl)-2-hydroxy-2-methylpropyl)-3-phenyltetrahydropyrimidin-2(1H)-one] — within 1.5-fold, 923 nM
- CC(C)N1CCCN(CC(C)(O)Cn2c3ccc(F)cc3c3cc(F)ccc32)C1=O (centres unmarked) [Compound 80, 1-(3-(3,6-difluoro-9H-carbazol-9-yl)-2-hydroxy-2-methylpropyl)-3-isopropyltetrahydropyrimidin-2(1H)-one] — within 1.5-fold, 1100 nM
